Measurements as given in patent publication US5137889A, “Dihydropyridine derivatives and process for preparing the same” (Otsuka Pharmaceutical Co., Ltd., priority 1983, dated 1992).

Tests used:
[1] = biological target: T1, Calmodulin-cyclic-AMP phosphodiesterase (Bos taurus, UniProt P62157); experiment: Calmodulin-cyclic-AMP phosphodiesterase inhibitory activity (presence of calmodulin); type: biochemical, bovine; conditions: with calmodulin and CaCl2, pH 7.0, 30° C., 30 minutes
T1 construct: tissue Amano & Co. (calmodulin only); host or cells: phosphodiesterase: bovine heart, partially purified; calmodulin: bovine brain
Description: (1) Calmodulin: A calmodulin product manufactured by Amano & Co., which was isolated from the brain of bovine, and purified so as to be considered as a single substance with respect to SDS-page (polyacrylamide gel electrophoresis) method.
(§1) (2) Calmodulin-dependent cyclic-AMP phosphodiesterase (EC 3.1.4.17): An enzyme substance isolated from the heart of bovine and purified partially by a method of modified version of the disclosure in H. C. Ho, T. S. Teo, et al.: "Biochim. Biophys. Acta", 429, 461 (1976).
(§2) (3) 5'-Nucleotidase (EC 3.1.3.5): Grade IV substance (isolated from Crotalus adamanteus venom) manufactured by Sigma & Co.
(§3) (4) Others: Remainder of the reagents used in the test were those of reagent grade chemicals manufactured by Wako Pure-Chemical Industries, Ltd.
(§4) Calmodulin inhibitory activity of each of the test compounds was measured by a method of modified version of the disclosure in T. S. Teo and T. H. Wang: "J. Bio. Chem.", 248, 588 (1973).
(2) Calmodulin: One unit thereof stimulates 0.015 activated unit of cyclic-AMP phosphodiesterase to 50% of the maximum activity of the enzyme.
(§5) (3) 5'-Nucleotidase: One unit thereof hydrolyzes 1.0 micromole of inorganic phosphorus from adnosine 5'-monophosphate per minute at pH 9.0 at 37° C.
(1) Calmodulin-cyclic-AMP phosphodiesterase inhibitory activity:
40 mM of Imidazol, 20 mM of MgCl2, 20 mM of CaC12, 0.008 unit of cyclic-AMP phosphodiesterase, 1.0 unit of calmodulin, 0.2 unit of 5'-nucleotidase and 1.0 ml of 10 mM-tris(hydroxymethyl)aminomethane/HCl buffer solution (pH 7.0) containing 0.5 mM of cyclic-AMP were mixed together, and reacted at 30° C. for 30 minutes. Each of the test compounds was dissolved in methanol or N,N-dimethylformamide as the solvent, provided that the quantity of the solvent was not exceed 2% of the total amount of the mixture. After the reaction was completed, the reaction mixture was ice-cooled, and 0.5 ml each of aqueous solutions of 16.5%-trichloroacetic acid, 1%-thiourea, 3%-ammonium ferrous sulfate were respectively added to the reaction mixture. Further, 0.15 ml of 4.4%-ammonium molibdate solution was added to the mixture and the whole of the mixture was stirred, and was centrifuged at 3,000 r.p.m. for 10 minutes. Then, the centrifuged mixture was allowed to stand at a room temperature for 20 minutes. The OD660 nm (optical density at 660 nm) was measured.

[2] = biological target: T2, Cyclic-AMP phosphodiesterase (Bos taurus, UniProt P14100); experiment: Cyclic AMP phosphodiesterase inhibitory activity (absence of calmodulin, EGTA in place of CaCl2); type: biochemical, bovine; conditions: 1 mM EGTA in place of CaCl2; 3 hours
T2 construct: from tissue; host or cells: bovine heart, partially purified
Description: as §1, §2, §3, §4, §5
(2) Cyclic AMP phosphodiesterase inhibitory activity:
The reaction was conducted by a method similar to that described in (1) as mentioned above, except that 1 mM of EGTA [ethylene glycol-bis(β-amino ethyl ether)-N,N-tetraacetic acid] was used in place of 20 mM of CaCl2. The reaction was conducted for 3 hours.

[3] = system: SHR-rats (spontaneously hypertensive rats); conditions: 30 mg/kg p.o.
Description: Systolic blood pressures and heart beat of SHR-rats (spontaneously hypertensive rats) were determined by a "tail cuff method". Thus the test animal was placed in a thermostat chamber (Type: FR-12RS, manufactured by Isuze & Co.) and was warmed at 40° C. for 15 minutes so as to vasodilate the tail arteria, the systolic blood pressures were measured by an electro sphygmomanometer (Type: PE-300, manufactured by Narco-Biosystems, Inc.) and recorded by an ink-writing recorder (Type: RECTI-HORIZ 8s, manufactured by San-Ei Instrument & Co.). The experiments were conducted under non-anesthetized and semi-confinement conditions. The test compound was orally administered forcedly by using a sonde for oral administration. The test compound was suspended in 0.15%-gum arabic powder aqueous solution so as to make the quantity of the test compound to 2.5 ml/kg. The test animal was not fasted, and the systolic blood pressures (mm-Hg) were measured before the administration (hereinafter referred to as "PRE") and after the administration (8, 24, 30, 48, 54 and 72 hours after the administration) of the test compound. The data of systolic blood pressure measured before the administration are shown in absolute value of mmHg, and the data measured after the administration are shown in the differences from the absolute values.

T2 sequence (P14100 1-514 isoform P14100-2): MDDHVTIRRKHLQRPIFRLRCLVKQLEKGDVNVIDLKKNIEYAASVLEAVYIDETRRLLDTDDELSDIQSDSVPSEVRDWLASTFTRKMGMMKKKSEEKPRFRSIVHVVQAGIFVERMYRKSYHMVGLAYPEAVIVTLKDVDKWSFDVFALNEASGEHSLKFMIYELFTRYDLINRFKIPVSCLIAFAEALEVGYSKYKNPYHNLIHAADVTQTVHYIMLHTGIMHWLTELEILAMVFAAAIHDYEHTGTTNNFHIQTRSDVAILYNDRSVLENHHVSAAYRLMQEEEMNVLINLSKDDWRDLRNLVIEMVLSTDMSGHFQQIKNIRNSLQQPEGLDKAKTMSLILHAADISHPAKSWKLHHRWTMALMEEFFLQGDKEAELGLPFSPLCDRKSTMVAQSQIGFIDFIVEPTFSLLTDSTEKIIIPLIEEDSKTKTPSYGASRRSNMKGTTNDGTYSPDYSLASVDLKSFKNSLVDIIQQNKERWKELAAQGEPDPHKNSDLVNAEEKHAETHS

Row | Compound | IC50 ([1]; read-out: Calmodulin-cyclic-AMP phosphodiesterase IC50 (converted)) [µM] | IC50 [2] [µM] | Calmodulin-cyclic-AMP phosphodiesterase IC50 [1] [µg/mL] | Cyclic-AMP phosphodiesterase IC50 [2] [µg/mL] | Blood pressure after the administration, 24 hours (difference from the absolute value before administration) [3] [mm-Hg] | Blood pressure after the administration, 30 hours (difference from the absolute value before administration) [3] [mm-Hg] | Blood pressure after the administration, 48 hours (difference from the absolute value before administration) [3] [mm-Hg] | Blood pressure after the administration, 54 hours (difference from the absolute value before administration) [3] [mm-Hg] | Blood pressure after the administration, 72 hours (difference from the absolute value before administration) ([3]; 72 hours) [mm-Hg]
1 | COC(=O)C1=C(C)NC(C)=C(C(=O)OC/C=C/c2cccc(O)c2)C1c1cccc([N+](=O)[O-])c1 (stereo not drawn) [Test Compound 25, Methyl 3-(3-hydroxyphenyl)-2(E)propenyl 1,4-dihydro-2,6-dimethyl-4-(3-nitrophenyl)-pyridine-3,5-dicarboxylate] | 1.94 | 53 |  |  |  |  |  |  | 
2 | Methyl 3-(4-hydroxyphenyl)-2(E)-propenyl 1,4-dihydro-2,6-dimethyl-4-(3-nitrophenyl)pyridine-3,5-dicarboxylate [Test Compound 1] |  |  | 4.1 | 60 | -38.6 | -21.2 | -21.0 | -19.2 | 
3 | Methyl 3-(4-hydroxyphenyl)-2-propynyl 1,4-dihydro-2,6-dimethyl-4-(3-nitrophenyl)-pyridine-3,5-dicarboxylate [Test Compound 12] |  |  | 0.78 | 13 | -18.0 | -25.8 | -19.8 | -14.6 | 
4 | Methyl 4-(4-methylthiophenyl)-3(E)-butenyl 1,4-dihydro-2,6-dimethyl-4-(3-nitrophenyl)-pyridine-3,5-dicarboxylate [Test Compound 15] |  |  | 0.062 | 0.23 | -75.4 | -66.8 | -20.8 | -10.6 | -9.6
